Measurements as given in PMC7037682, “Herb–Drug Interaction of Red Ginseng Extract and Ginsenoside Rc with Valsartan in Rats” (Molecules, 2020).
Where two headings read alike, the source gives them in different places.

Columns and labels:
[1] = Plasma pharmacokinetics of ginsenosides in rats after 1-week repeated RGE; details: for maximum plasma concentration (molar): after RGE 1.5 g/kg/day po for 7 days; for detection in rat plasma: LC-MS/MS
Experimental: The rats were randomly divided into the control and RGE groups. The RGE group received a RGE suspension (1.5 g/mL/kg/day, in distilled water) for 7 days via oral gavage. The control group received distilled water for 7 days via oral gavage. After 1 h following the last RGE treatment, valsartan was injected intravenously to both groups via the tail vein at 1 mg/mL/kg (dissolved in DMSO: saline = 2:8, v/v). […] After centrifugation of the blood samples at 16,000× g for 10 min, aliquots (50 μL each) of plasma samples were stored at −80 °C until the analysis of ginsenosides and valsartan.
The residue was reconstituted with 100 μL of 70% methanol consisting of 0.1% formic acid. An aliquot (20 μL) from the sample was injected into the LC-MS/MS system.
After freezing the aqueous layer at −80 °C for 2 h, the upper organic layer was transferred to a clean tube and evaporated to dryness. […] An aliquot (20 μL) from the sample was injected into the LC-MS/MS system. The samples were eluted through an Omega Polar C18 column (2.1 mm × 100 mm, 3 µm particle size) (Phenomenex, Torrance, CA, USA) using a mobile phase consisting of 0.1% formic acid in water: 0.1% formic acid in methanol (15:85, v/v) at a flow rate of 0.2 mL/min.
Pharmacokinetic parameters were calculated from plasma concentration-time profile using non-compartment analysis of WinNonlin (version 5.1; Pharsights, Cary, NC, USA). The statistical significance was assessed by t-test using Statistical Package for the Social Sciences (version 24.0; SPSS Inc., Chicago, IL, USA).

OATP1B1 = biological target: T1, OATP1B1 (Homo sapiens, UniProt Q9Y6L6); assay: Inhibition of OATP1B1-mediated [3H]estrone-3-sulfate uptake in HEK293-OATP1B1 cells
T1 sequence (Q9Y6L6 1-691): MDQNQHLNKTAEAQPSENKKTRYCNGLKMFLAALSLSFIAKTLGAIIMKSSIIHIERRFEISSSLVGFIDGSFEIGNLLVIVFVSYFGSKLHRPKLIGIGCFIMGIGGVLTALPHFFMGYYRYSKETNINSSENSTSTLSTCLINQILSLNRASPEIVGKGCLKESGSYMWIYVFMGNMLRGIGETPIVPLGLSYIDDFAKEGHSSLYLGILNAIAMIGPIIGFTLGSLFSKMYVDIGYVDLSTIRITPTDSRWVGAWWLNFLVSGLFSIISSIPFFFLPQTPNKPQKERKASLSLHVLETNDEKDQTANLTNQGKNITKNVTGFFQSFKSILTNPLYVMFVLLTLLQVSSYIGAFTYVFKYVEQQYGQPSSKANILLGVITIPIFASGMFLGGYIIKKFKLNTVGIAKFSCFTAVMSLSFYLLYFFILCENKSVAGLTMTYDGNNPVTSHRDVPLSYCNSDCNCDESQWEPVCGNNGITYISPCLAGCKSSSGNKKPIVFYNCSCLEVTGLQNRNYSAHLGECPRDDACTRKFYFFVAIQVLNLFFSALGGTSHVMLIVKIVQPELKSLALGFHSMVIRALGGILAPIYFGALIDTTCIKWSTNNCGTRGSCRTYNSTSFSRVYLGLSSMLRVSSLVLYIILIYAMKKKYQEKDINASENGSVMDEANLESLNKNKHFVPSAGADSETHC
Experimental: (§1) HEK293 cells overexpressing the OCT1, OCT2, OAT1, OAT3, OATP1B1, and OATP1B3 transporters (HEK293-OCT1, -OCT2, -OAT1, -OAT3, -OATP1B1, and -OATP1B3, respectively) and HEK293-mock cells (Corning Life Sciences; Woburn, MA, USA) were used and characterized as previously described.
(§2) HEK293 cells overexpressing drug transporters and HEK293-mock cells were seeded in poly-D-lysine-coated 96-well plates at a density of 10^5 cells/well and were cultured in DMEM supplemented with 10% FBS, 5 mM non-essential amino acids, and 2 mM sodium butyrate in a humidified atmosphere with 8% CO2 at 37 °C.
(§3) To examine the effects of ginsenosides and typical inhibitors on transporter activity, aliquots (100 μL) of HBSS containing the probe substrate and ginsenosides or typical inhibitors were added to the cells after aspirating pre-incubated HBSS. The concentrations and probe substrates were as follows: 0.1 μM [^3H]MPP^+ for OCT1 and OCT2, 0.1 μM [^3H]PAH for OAT1, 0.1 μM [^3H]ES for OAT3 and OATP1B1, and 0.1 μM [^3H]EG for OATP1B3. […] Then the uptake of probe substrates into HEK293-mock cells and HEK293-OCT1, -OCT2, -OAT1, -OAT3, -OATP1B1, and -OATP1B3 cells in the presence and absence of typical inhibitor or each ginsenoside with previously described concentration range was measured for 5 min. Immediately after placing the plates on ice, the cells were washed three times with 100 μL of ice-cold HBSS, followed by lysing with 50 μL of 10% SDS solution and mixing with 150 μL of Optiphase cocktail solution (Perkin Elmer Inc., Boston, MA, USA). The radioactivity of the probe substrates in the cells was determined using a liquid scintillation counter.
(§4) In the inhibition studies, the uptake rate of substrate by HEK293 cells overexpressing the respective transporters was used as the control (100%) and the uptake rate of substrates in the presence of typical inhibitors or ginsenosides expressed as a percentage of the control. The inhibition data were fitted to an inhibitory effect model using Sigma plot (version 10.0; Systat Software Inc., San Jose, CA, USA). IC50 value indicated the half-maximal inhibitory concentration of the inhibitor.

OCT2 = biological target: T2, OCT2 (Homo sapiens, UniProt O15244); assay: Inhibition of OCT2-mediated [3H]MPP+ uptake in HEK293-OCT2 cells
T2 sequence (O15244 1-555): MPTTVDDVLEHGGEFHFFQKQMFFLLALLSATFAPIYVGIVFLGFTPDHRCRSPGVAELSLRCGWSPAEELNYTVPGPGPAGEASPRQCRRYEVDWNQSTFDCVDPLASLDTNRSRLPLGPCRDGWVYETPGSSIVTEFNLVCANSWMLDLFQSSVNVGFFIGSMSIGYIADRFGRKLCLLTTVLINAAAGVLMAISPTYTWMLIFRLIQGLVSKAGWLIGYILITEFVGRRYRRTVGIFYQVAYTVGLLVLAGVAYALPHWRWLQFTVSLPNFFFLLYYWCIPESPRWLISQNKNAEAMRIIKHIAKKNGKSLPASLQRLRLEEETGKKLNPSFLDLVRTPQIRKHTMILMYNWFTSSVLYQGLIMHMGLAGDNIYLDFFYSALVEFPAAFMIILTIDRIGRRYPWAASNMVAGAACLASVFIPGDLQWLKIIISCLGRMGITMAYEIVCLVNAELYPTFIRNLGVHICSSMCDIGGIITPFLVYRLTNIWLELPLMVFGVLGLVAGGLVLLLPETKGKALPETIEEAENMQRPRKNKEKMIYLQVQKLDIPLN
Experimental: as §1, §2, §3, §4

[2] = after RGE 1.5 g/kg/day po for 1 week
[3] = HEK293-OATP1B1, 0.1 μM [3H]ES uptake, 5 min
[4] = read-out: IC50 OATP1B1, HEK293-OATP1B1, 0.1 μM [3H]ES uptake, 5 min
[5] = read-out: IC50 OCT2, HEK293-OCT2, 0.1 μM [3H]MPP+ uptake, 5 min
[6] = rat plasma, after RGE 1.5 g/kg/day po for 1 week

Row | Structure (SMILES) | maximum plasma concentration (molar) ([1]; rat plasma) [nM] | AUC ([1]; rat, plasma, po, 1.5 g/kg/day) [ng·h/mL] | Cmax ([1]; rat, plasma, po, 1.5 g/kg/day) [ng/mL] | MRT ([1]; rat, plasma, po, 1.5 g/kg/day) [h] | Tmax ([1]; rat, plasma, po, 1.5 g/kg/day) [h] | half-life ([1]; rat, plasma, po, 1.5 g/kg/day) [h] | IC50 (OATP1B1) [µM] | IC50 (OCT2) [µM] | detection in rat plasma [1, 2] | IC50 OATP1B1 (OATP1B1; [3]) | IC50 (OATP1B1; [4]) [µM] | IC50 (OCT2; [5]) [µM] | other results
1 | CC(C)=CCC[C@](C)(O[C@@H]1O[C@H](CO[C@@H]2O[C@@H](CO)[C@H](O)[C@H]2O)[C@@H](O)[C@H](O)[C@H]1O)[C@H]1CC[C@]2(C)[C@@H]1[C@H](O)C[C@@H]1[C@@]3(C)CC[C@H](O[C@@H]4O[C@H](CO)[C@@H](O)[C@H](O)[C@H]4O[C@@H]4O[C@H](CO)[C@@H](O)[C@H](O)[C@H]4O)C(C)(C)[C@@H]3CC[C@]12C [Rc, ginsenoside Rc] | 10.6 | 321 ± 97.2 | 11.7 ± 2.49 | 18.4 ± 1.89 | 3.33 ± 1.15 | 24.2 ± 7.51 | 18.3 | > 100 | – | – | – | – | –
2 | CC(C)=CCC[C@](C)(O)[C@H]1CC[C@]2(C)[C@@H]1[C@H](O)C[C@@H]1[C@@]3(C)CC[C@H](O[C@@H]4O[C@H](CO)[C@@H](O)[C@H](O)[C@H]4O)C(C)(C)[C@@H]3CC[C@]12C [Rh2, ginsenoside Rh2] | – | – | – | – | – | – | 22.3 | > 100 | not detected | – | – | – | –
3 | CC(C)=CCC[C@](C)(O[C@@H]1O[C@H](CO)[C@@H](O)[C@H](O)[C@H]1O)[C@H]1CC[C@]2(C)[C@@H]1[C@H](O)C[C@@H]1[C@@]3(C)CC[C@H](O[C@@H]4O[C@H](CO)[C@@H](O)[C@H](O)[C@H]4O[C@@H]4O[C@H](CO)[C@@H](O)[C@H](O)[C@H]4O)C(C)(C)[C@@H]3CC[C@]12C [Rd, ginsenoside Rd] | 5.3 | 164 ± 39.1 | 5.1 ± 0.74 | 20.8 ± 1.68 | 2.17 ± 1.76 | 43.5 ± 17.5 | 15.9 | > 100 | – | – | – | – | –
4 | CC(C)=CCC[C@](C)(O[C@@H]1O[C@H](CO)[C@@H](O)[C@H](O)[C@H]1O)[C@H]1CC[C@]2(C)[C@@H]1[C@H](O)C[C@@H]1[C@@]3(C)CC[C@H](O)C(C)(C)[C@@H]3[C@@H](O[C@@H]3O[C@H](CO)[C@@H](O)[C@H](O)[C@H]3O[C@@H]3O[C@@H](C)[C@H](O)[C@@H](O)[C@H]3O)C[C@]12C [Re, ginsenoside Re] | – | – | – | – | – | – | > 100 | > 100 | not detected | did not inhibit | – | – | –
5 | CC(C)=CCC[C@](C)(O[C@@H]1O[C@H](CO)[C@@H](O)[C@H](O)[C@H]1O)[C@H]1CC[C@]2(C)[C@@H]1[C@H](O)C[C@@H]1[C@@]3(C)CC[C@H](O)C(C)(C)[C@@H]3CC[C@]12C [Compound K, compound K] | – | – | – | – | – | – | – | – | not detected | – | 22.5 | > 100 | –
6 | CC(C)=CCC[C@](C)(O)[C@H]1CC[C@]2(C)[C@@H]1[C@H](O)C[C@@H]1[C@@]3(C)CC[C@H](O)C(C)(C)[C@@H]3[C@@H](O)C[C@]12C [PPT, protopanaxatriol] | 38.5 | – | – | – | – | – | – | – | detected | did not inhibit | > 100 | > 100 | AUC ([1]; rat plasma, 0 to 48 h, after RGE 1.5 g/kg/day po for 1 week): 429.91 ± 105.75 ng·h/mL; Cmax [1, 6]: 16.97 ± 8.99 ng/mL; MRT [1, 6]: 23.12 ± 2.26 h; T1/2 [1, 6]: 46.38 ± 13.27 h; Tmax [1, 6]: 16.50 ± 12.48 h
7 | CC(C)=CCC[C@](C)(O[C@@H]1O[C@H](CO[C@@H]2OC[C@H](O)[C@H](O)[C@H]2O)[C@@H](O)[C@H](O)[C@H]1O)[C@H]1CC[C@]2(C)[C@@H]1[C@H](O)C[C@@H]1[C@@]3(C)CC[C@H](O[C@@H]4O[C@H](CO)[C@@H](O)[C@H](O)[C@H]4O[C@@H]4O[C@H](CO)[C@@H](O)[C@H](O)[C@H]4O)C(C)(C)[C@@H]3CC[C@]12C [Rb2, ginsenoside Rb2] | 9.1 | 283 ± 58.9 | 10 ± 1.04 | 18.6 ± 1.43 | 3.33 ± 1.15 | 30.2 ± 5.48 | 47.6 | > 100 | – | – | – | – | –
8 | CC(C)=CCC[C@](C)(O)[C@H]1CC[C@]2(C)[C@@H]1[C@H](O)C[C@@H]1[C@@]3(C)CC[C@H](O[C@@H]4O[C@H](CO)[C@@H](O)[C@H](O)[C@H]4O[C@@H]4O[C@H](CO)[C@@H](O)[C@H](O)[C@H]4O)C(C)(C)[C@@H]3CC[C@]12C [Rg3, ginsenoside Rg3] | – | – | – | – | – | – | – | – | not detected | – | 7.99 | > 100 | –
9 | CC(C)=CCC[C@](C)(O)[C@H]1CC[C@]2(C)[C@@H]1[C@H](O)C[C@@H]1[C@@]3(C)CC[C@H](O)C(C)(C)[C@@H]3[C@@H](O[C@@H]3O[C@H](CO)[C@@H](O)[C@H](O)[C@H]3O)C[C@]12C [Rh1, ginsenoside Rh1] | – | – | – | – | – | – | > 100 | > 100 | not detected | did not inhibit | – | – | –
10 | CC(C)=CCC[C@](C)(O[C@@H]1O[C@H](CO[C@@H]2O[C@H](CO)[C@@H](O)[C@H](O)[C@H]2O)[C@@H](O)[C@H](O)[C@H]1O)[C@H]1CC[C@]2(C)[C@@H]1[C@H](O)C[C@@H]1[C@@]3(C)CC[C@H](O[C@@H]4O[C@H](CO)[C@@H](O)[C@H](O)[C@H]4O[C@@H]4O[C@H](CO)[C@@H](O)[C@H](O)[C@H]4O)C(C)(C)[C@@H]3CC[C@]12C [Rb1, ginsenoside Rb1] | – | 455 ± 111 | 17.8 ± 2.34 | 17.1 ± 2.09 | 3.33 ± 1.15 | 16.9 ± 5.81 | 68.2 | > 100 | – | – | – | – | –
